Values of other authors, collected in paper PMC8465315, “Molecular Umbrella as a Nanocarrier for Antifungals” (Molecules, 2021).

Set-up: method as in PMID 15593345
Conditions: in vitro; cited from earlier work

In the case of `C=C1C[C@H](N)[C@H](C(=O)O)C1` [BAY 10-8888], the “metabolism by liver microsomes” value is given as “not metabolized”.
